The numbers were not newly measured in US6542858B1, “Pharmacokinetic-based drug design tool and method” (Lion Bioscience AG, priority 1998, dated 2003), which cites them from elsewhere.

For series [1] the following is noted: Plasma Kinetics; mass model parameter.

Consider `Nc1nc2c(ncn2COC(CO)CO)c(=O)[nH]1.[Na]` [Gancyclovir, 9-(1,3-dihydroxy-2-propoxymethyl)guanine, monosodium salt], for which the in vivo biotransformation entry is given as “no in vivo biotransformation”. The k21 in series [1] is given as 0.670. Moreover, the absorption entry (in vivo) is “poorly absorbed”.
